Data from US20170157212A1, “CDK MODULATORS AND METHODS FOR THE TREATMENT OF CANCER” (Salk Institute for Biological Studies, priority 2015, published 2017).
Entries after “also recorded” stand apart in the source; their conditions may differ.

Experiments:
[1] = molecular target: T1, affinity-purified CDK9/P-TEFb complex (Homo sapiens, UniProt P50750); assay: In vitro kinase assay: CDK9/P-TEFb phosphorylation of GST-CTD; format: biochemical; details: affinity-purified FLAG-CDK9 kinase, immunoblot
T1 construct: FLAG; made in house
Text: (A) CRIF1 and CDK12 have opposite effects on global RNAPII CTD-Ser2P levels in vivo. U2OS cells were transfected with indicated siRNAs for 48 hr, and RNAPII phosphorylation was monitored by immunoblot using phospho-specific CTD (Ser2P and Ser5P) antibodies. (B) Knockdown of CRIF1 up-regulates CHK1 expression and induction of p53. […] (C) Analysis of steady-state mRNA levels by qRT-PCR in extracts from U2OS cells exposed to control (CTL) or CRIF1-specific siRNAs, as indicated. (D) Depletion of CRIF1 enhances 4E-BP1 phosphorylation at S65 and T70 in vivo, as assessed by immunoblot using phospho-specific antibodies. (E) CRIF1 inhibits RNAPII CTD-Ser2 phosphorylation by CDK12 complexes in vitro. The human GST-CTD (52 repeat) protein was incubated in vitro with the affinity-purified HA-CDK12 kinase complex in the absence or presence of increasing levels of purified recombinant CRIF1, and analyzed by immunoblot with the indicated antisera. […] Analysis of GST-CTD Ser2 phosphorylation was carried out as described in (E), using the affinity-purified FLAG-CDK9 kinase. (G) CRIF1 inhibits 4E-BP1 phosphorylation by CDK12 in vitro. […] was monitored by immunoblot in the absence or in the presence of different levels of affinity-purified recombinant CRIF1. […]

[2] = molecular target: T2, CDK8 (Homo sapiens, UniProt P49336); assay: Co-immunoprecipitation of CRIF1 with CDK8; format: binding
T2 construct: endogenous in cells
Text: FIGS. 5A-5I. The Mitochondrial OX-PHOS Regulator, CRIF1, is a Novel Subunit of the Human CDK12 Kinase Complex. (A) Identification of CRIF1 as a near-stoichiometric subunit of the native CDK12 kinase complex. MudPIT analysis of CDK12 complexes from HEK293 cells that stably express HA-tagged full-length human CDK12. The HA-CDK12 complex was affinity-purified using anti-HA antibody and visualized by SDS-PAGE and silver-stain. (B) List of the identified proteins in the HA-CDK12 complex from (A). (C) Endogenous CRIF1 co-immunoprecipitates with native CDK12 in U2OS cell extracts. Shown is an immunoblot analysis of CRIF1, CCNK, and the chaperone proteins CDC37 and HSP90 in an anti-CDK12 immunoprecipitate. (D) CRIF1 is a specific subunit of the CDK12 complex. Native CRIF1 was immunoprecipitated from U2OS cells using an anti-CRIF1 antibody and analyzed by co-immunoprecipitation for association with various CDKs, as indicated. […] FLAG-CRIF1 proteins containing different C-terminal truncations were co-expressed with HA-CDK12 (aa 985-1490) and analyzed for binding by co-immunoprecipitation and immunoblot. […] Cell viability was analyzed after 72 hr. […] Expression of the mitochondrial MTCO-1 (COX1) protein was assessed using two different antisera. […] Each fraction (T; total, C:cytosolic, M:membrane/organelle, and N:nuclear) was analyzed by immunoblot using the indicated antibodies. […]

T1 sequence (P50750 whole entry): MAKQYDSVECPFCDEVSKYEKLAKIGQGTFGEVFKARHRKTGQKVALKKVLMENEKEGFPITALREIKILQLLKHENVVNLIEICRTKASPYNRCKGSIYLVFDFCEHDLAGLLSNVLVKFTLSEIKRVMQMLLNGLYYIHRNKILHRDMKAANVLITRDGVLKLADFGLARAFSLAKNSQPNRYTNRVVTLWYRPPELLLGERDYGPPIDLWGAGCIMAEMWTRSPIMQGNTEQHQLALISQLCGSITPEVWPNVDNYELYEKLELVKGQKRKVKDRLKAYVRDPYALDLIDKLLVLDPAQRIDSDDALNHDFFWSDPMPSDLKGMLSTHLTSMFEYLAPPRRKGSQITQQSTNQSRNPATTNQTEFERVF
T1 sequence (O60563 whole entry partner): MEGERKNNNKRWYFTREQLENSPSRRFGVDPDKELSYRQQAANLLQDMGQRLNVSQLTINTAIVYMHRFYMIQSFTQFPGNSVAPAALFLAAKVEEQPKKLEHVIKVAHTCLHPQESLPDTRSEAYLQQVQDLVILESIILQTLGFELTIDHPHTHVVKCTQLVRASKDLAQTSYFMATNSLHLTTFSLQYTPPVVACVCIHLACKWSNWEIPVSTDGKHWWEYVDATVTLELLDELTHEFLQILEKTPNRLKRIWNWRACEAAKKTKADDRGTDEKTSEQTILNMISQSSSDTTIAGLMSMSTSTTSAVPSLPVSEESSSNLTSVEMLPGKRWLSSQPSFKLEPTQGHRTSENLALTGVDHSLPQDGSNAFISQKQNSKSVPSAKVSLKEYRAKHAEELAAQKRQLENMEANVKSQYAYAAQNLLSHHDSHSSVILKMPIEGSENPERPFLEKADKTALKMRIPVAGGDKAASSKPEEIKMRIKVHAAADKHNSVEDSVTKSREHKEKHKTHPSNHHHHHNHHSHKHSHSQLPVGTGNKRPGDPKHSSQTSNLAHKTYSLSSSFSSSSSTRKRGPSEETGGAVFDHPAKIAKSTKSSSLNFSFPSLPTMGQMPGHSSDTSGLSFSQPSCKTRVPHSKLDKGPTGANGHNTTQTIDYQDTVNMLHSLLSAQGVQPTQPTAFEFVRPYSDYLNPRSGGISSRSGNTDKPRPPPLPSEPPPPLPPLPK
T2 sequence (P49336 whole entry): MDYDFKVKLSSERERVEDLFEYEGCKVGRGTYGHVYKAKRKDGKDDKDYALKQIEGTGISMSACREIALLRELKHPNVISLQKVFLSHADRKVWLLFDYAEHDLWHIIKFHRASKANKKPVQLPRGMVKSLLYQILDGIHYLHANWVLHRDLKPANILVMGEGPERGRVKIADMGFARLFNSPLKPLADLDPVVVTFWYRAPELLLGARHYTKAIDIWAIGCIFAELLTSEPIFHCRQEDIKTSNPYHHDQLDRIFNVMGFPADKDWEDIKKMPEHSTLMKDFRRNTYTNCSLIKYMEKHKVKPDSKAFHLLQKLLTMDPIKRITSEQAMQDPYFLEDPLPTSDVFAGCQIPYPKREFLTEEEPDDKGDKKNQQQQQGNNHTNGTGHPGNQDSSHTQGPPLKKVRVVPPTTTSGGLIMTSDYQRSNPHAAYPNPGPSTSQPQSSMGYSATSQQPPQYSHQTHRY

- CDK9/P-TEFb phosphorylation of the GST-CTD substrate ([1]; listed as Recombinant CRIF1): does not inhibit
- CDK9/P-TEFb phosphorylation of the GST-CTD substrate ([1]; listed as rCRIF): no effect
Substance: Growth Arrest and DNA Damage-Inducible Proteins-Interacting Protein 1 [CRIF1]
- presence in / binding to CDK8 complexes [2]: not present; also recorded: does not bind
